Test results from US20220048915A1 (SHANGHAI PHARMACEUTICALS HOLDING CO., LTD., priority 2018, published 2022).

Assays:
p38β = p38β (Homo sapiens, UniProt Q15759); assay: In vitro inhibition of p38 kinase (LANCE Ultra TR-FRET); type: biochemical; details: read-out: Kinase in vitro IC50(nM) p38β
p38α = p38α (Homo sapiens, UniProt Q16539); assay: as above; type: biochemical; details: read-out: Kinase in vitro IC50(nM) p38α
BV-2 cells = assay: Inhibition of inflammation in LPS-stimulated BV-2 cells (ELISA of inflammatory factors); type: cell-based; details: Mus musculus, 100 ng/mL LPS 4 hours; for Emax: read-out: BV-2 Max Inh. (%); for IC50: read-out: BV-2 Rf IC50
Procedure: Normal cultured 8th passage BV-2 cells were taken, and inoculated separately in 96-well plates at a certain cell density. The cell culture plates were cultured at 37° C. and 5% CO2 for 24 hours.
After inoculating the plate for 24 hours, the cell culture medium was removed, and then 100 μL of a 4-fold gradient dilution compound starting from 10,000 nM prepared in DMEM+10% FBS, where High control and Low control contained 0.1% DMSO without compound. With 100 μL per well, the cell culture plate was cultured at 37° C. with 5% CO2 for one hour.
The compound-containing cultures were removed. 100 ng/mL of LPS was prepared with DMEM+10% FBS culture medium, and then the compound was diluted in a 4-fold gradient from 10,000 nM with LPS-containing culture medium. In low control, the compound was replaced with 0.1% DMSO. In High control, 0.1% DMSO was prepared with culture medium without LPS. 100 μL per well, and the cell culture plates were cultured at 37° C. with 5% CO2 for 4 hours.
After 4 hours of LPS stimulation, 110 μL of the culture solution was aspirated, and centrifuged at 2000 rpm for 2 minutes. A further 90 μl of supernatant was aspirated and immediately put into −20° C. for freezing.
ELISA kits were used to detect the expression of inflammatory factors such as IL-10, TNFα, etc. The OD450 signal values were measured by microplate reader. The in vitro inhibitory activity of the compounds was calculated according to the following formula: Inhibition rate: Inhibition rate (%)=(signal value of control−signal value of administration)/(high signal value of control−low signal value of control)×100%. And according to the inhibition rate of each concentration, Graphpad Prism 5.0 was used to curve fit the […] signal values at each concentration and calculate the corresponding IC50, which is shown in Table 1.

p38γ = target: T1, p38γ (Homo sapiens, UniProt P53778); assay: In vitro inhibition of p38 kinase (LANCE Ultra TR-FRET); type: biochemical; details: read-out: Kinase in vitro IC50(nM) p38γ
T1 sequence (P53778 1-367): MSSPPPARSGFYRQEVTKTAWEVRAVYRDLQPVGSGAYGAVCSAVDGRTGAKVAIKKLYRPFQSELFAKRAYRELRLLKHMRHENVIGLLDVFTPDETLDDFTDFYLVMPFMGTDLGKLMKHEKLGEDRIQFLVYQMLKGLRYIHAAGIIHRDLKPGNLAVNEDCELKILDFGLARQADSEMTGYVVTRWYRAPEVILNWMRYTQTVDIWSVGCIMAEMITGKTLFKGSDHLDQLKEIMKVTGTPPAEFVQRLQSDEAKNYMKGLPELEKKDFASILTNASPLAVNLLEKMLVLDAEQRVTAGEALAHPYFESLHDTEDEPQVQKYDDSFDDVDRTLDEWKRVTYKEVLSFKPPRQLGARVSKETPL
Procedure: 10 mM of the storage solution of the test compound was taken and placed in a 96-well compound plate, and using DMSO for the compound at an initial concentration of 100×, which was then used as the first concentration and then carried out a 3-fold gradient dilution with DMSO for a total of 10 concentrations. After that, 1 μL of gradient dilutions were added to 19 μL of 1× reaction buffer to prepare 5× compound for later use. […] To the compound-free control well was added 2 μL of the following liquid: 19 μL of 1× reaction buffer with addition of 1 μL of DMSO. To the Min control well was added 2 μL of 250 mM EDTA.
1× of LANCE® Detection value Buffer was used to prepare a 2×Antibody for use, and the amount was 5 μL per well, at the same time 10 mM EDTA was prepared for later use. After the enzyme reaction was carried out for 30 minutes, 5 μL 10 mM EDTA was added to the 384-well plate and the reaction was carried out at room temperature for 5 minutes. Afterwards, 5 μL LANCE® Ultra Europium-anti-phospho-eIF4E-binding protein 1 (Thr37/46) was added to the 384-well plate and the reaction was carried out at room temperature for one hour.

[1] = Pharmacokinetic properties in mice; type: in vivo, ICR mice; details: for absorption compared with the positive compound VX-745 at the same dose: 10 mg/kg; for Thalf (iv): iv 3 mg/kg; for Cmax / MRT / Tmax: male, ICR, mouse, plasma; for Cmax / MRT / Tmax / AUClast (po): po 10 mg/kg; for BA: po 10 mg/kg vs iv 3 mg/kg; for AUClast (po): 5-1440 minutes
Procedure: Forty-eight male ICR mice, weighing 18-22 g (provided by Shanghai Xipuerbikai Laboratory Animal Co., Ltd, Certificate No.: 20130016008116). The mice were […] for 12-16 hours before the experiment but water was allowed.
Blood samples were collected from the fundus vein of mice before and at 2, 5, 15, 30, 60, 90, 120, 240, 480, 600, and 1440 minutes of the administration, respectively.
Blood samples were collected from the fundus vein of mice before and at 5, 15, 30, 60, 90, 120, 240, 480 and 1440 minutes of administration, respectively.
2-3 time points were taken for each mouse. The mice were sacrificed at 5, 15, 30, 60 and 1440 minutes after the administration (3 mice per time point), and the brains were taken, rinsed with saline, dried on filter paper and weighed.
Blood samples were centrifuged at 8000 rpm for 5 minutes, and supernatant plasma was taken. To 50 μL of plasma samples was added 300 μL of acetonitrile containing internal standard (propranolol, 25 ng/mL) to precipitate the protein. After vortexing for 10 minutes and centrifuging at 6000 g and 4° C. for 10 minutes, the supernatant was taken and placed in a 96-well plate for determination of drug concentration in plasma by UPLC/MS-MS.

p38β, sequence (Q15759 whole entry): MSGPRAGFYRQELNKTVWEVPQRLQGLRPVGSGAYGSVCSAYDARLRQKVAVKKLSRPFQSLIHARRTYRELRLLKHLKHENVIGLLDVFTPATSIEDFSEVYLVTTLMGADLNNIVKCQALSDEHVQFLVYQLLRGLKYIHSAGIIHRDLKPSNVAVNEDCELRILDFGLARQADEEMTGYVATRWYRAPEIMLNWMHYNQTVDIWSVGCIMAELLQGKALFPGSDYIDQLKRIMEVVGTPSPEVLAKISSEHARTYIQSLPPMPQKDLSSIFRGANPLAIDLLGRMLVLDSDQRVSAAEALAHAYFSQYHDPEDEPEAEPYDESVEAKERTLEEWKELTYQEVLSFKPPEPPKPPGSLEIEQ
p38α, sequence (Q16539 whole entry): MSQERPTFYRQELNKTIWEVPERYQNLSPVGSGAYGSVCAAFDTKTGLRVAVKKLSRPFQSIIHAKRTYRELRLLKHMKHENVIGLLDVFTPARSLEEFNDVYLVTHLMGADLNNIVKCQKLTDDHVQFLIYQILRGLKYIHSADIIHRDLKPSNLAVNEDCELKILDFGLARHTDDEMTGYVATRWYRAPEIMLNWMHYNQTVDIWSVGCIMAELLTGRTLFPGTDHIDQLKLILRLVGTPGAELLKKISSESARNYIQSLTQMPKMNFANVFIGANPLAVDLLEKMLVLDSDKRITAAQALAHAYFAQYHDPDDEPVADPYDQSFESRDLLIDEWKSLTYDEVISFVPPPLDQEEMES

| IC50 (p38β) | IC50 (p38α) | IC50 (BV-2 cells) | IC50 (p38γ) | absorption compared with the positive compound VX-745 at the same dose [1] | Thalf (iv) [1] | Cmax [1] | MRT [1] | Tmax [1] | BA [1] | AUClast (po) [1] | SMILES | Emax (BV-2 cells) |
| --- | --- | --- | --- | --- | --- | --- | --- | --- | --- | --- | --- | --- |
| 111 nM | 14.8 nM | 0.0124 µM | > 3330 nM | – | – | – | – | – | – | – | CC(C)N1CCN(c2cc3c(-c4c(Cl)cccc4Cl)c(=O)ncn3nc2Oc2ccc(F)cc2F)CC1 [Compound I-60, 5-(2,6-dichlorophenyl)-2-(2,4-difluorophenoxy)-3-(4-isopropylpiperazin-1-yl)-6H-pyrimido[1,6-b]pyridazin-6-one] | 34.5% |
| 243 nM | 46.9 nM | 0.0172 µM | > 3330 nM | – | – | – | – | – | – | – | O=c1ncn2nc(Oc3cccc(F)c3F)ccc2c1-c1c(Cl)cccc1Cl [Compound I-23, 5-(2,6-dichlorophenyl)-2-(2,3-difluorophenoxy)-6H-pyrimido[1,6-b]pyridazin-6-one] | -50% |
| 111 nM | 23 nM | 0.0415 µM | > 3330 nM | – | – | – | – | – | – | – | O=c1ncn2nc(Oc3ccc(F)c(F)c3F)ccc2c1-c1c(Cl)cccc1Cl [Compound I-40] | 47.7% |
| 1090 nM | 34.2 nM | – | > 3330 nM | better | 1.93 h | 928 ng/mL | 3.05 h | 0.83 h | 84.9% | 3107 (h)*(ng/mL) | Cc1ccccc1-c1c(=O)ncn2nc(Oc3ccc(F)cc3F)ccc12 [Compound I-50, 2-(2,4-difluorophenoxy)-5-(o-methylphenyl)-6H-pyrimido[1,6-b]pyridazin-6-one] | – |
| 109 nM | 13.6 nM | 0.0161 µM | > 3330 nM | – | – | – | – | – | – | – | O=c1ncn2nc(Oc3ccc(Cl)cc3F)ccc2c1-c1c(Cl)cccc1Cl [Compound I-6, 2-(4-chloro-2-fluorophenoxy)-5-(2,6-dichlorophenyl)-6H-pyrimido[1,6-b]pyridazin-6-one] | 44.7% |
| 434 nM | 60.6 nM | 0.0756 µM | > 3330 nM | – | – | – | – | – | – | – | O=c1ncn2nc(Oc3cccc(Br)c3)ccc2c1-c1c(Cl)cccc1Cl [Compound I-10, 2-(3-bromophenoxy)-5-(2,6-dichlorophenyl)-6H-pyrimido[1,6-b]pyridazin-6-one] | -60% |
| 97.1 nM | 14.8 nM | 0.00858 µM | > 3330 nM | – | – | – | – | – | – | – | O=c1ncn2nc(Oc3ccc(F)cc3Cl)ccc2c1-c1c(Cl)cccc1Cl [Compound I-18, 2-(2-chloro-4-fluorophenoxy)-5-(2,6-dichlorophenyl)-6H-pyrimido[1,6-b]pyridazin-6-one] | 50.6% |
| 226 nM | 27.7 nM | 0.0192 µM | > 3330 nM | – | – | – | – | – | – | – | O=c1ncn2nc(Oc3cc(F)ccc3F)ccc2c1-c1c(Cl)cccc1Cl [Compound I-21, 5-(2,6-dichlorophenyl)-2-(2,5-difluorophenoxy)-6H-pyrimido[1,6-b]pyridazin-6-one] | 51.3% |
| 302 nM | 32.8 nM | 0.176 µM | > 3330 nM | – | – | – | – | – | – | – | O=c1ncn2nc(Oc3cccc(Cl)c3Cl)ccc2c1-c1c(Cl)cccc1Cl [Compound I-12, 2-(2,3-dichlorophenoxy)-5-(2,6-dichlorophenyl)-6H-pyrimido[1,6-b]pyridazin-6-one] | 49.5% |
| 316 nM | 34.8 nM | 0.0958 µM | > 3330 nM | – | – | – | – | – | – | – | O=c1ncn2nc(Oc3ccccc3Br)ccc2c1-c1c(Cl)cccc1Cl [Compound I-17, 2-(2-bromophenoxy)-5-(2,6-dichlorophenyl)-6H-pyrimido[1,6-b]pyridazin-6-one] | -60% |
| 150 nM | 31.3 nM | 0.0183 µM | > 3330 nM | – | – | – | – | – | – | – | O=c1ncn2nc(Oc3cc(Cl)ccc3Cl)ccc2c1-c1c(Cl)cccc1Cl [Compound I-22, 2-(2,5-dichlorophenoxy)-5-(2,6-dichlorophenyl)-6H-pyrimido[1,6-b]pyridazin-6-one] | 53.6% |
| 602 nM | 35.6 nM | 0.296 µM | > 3330 nM | – | – | – | – | – | – | – | O=c1ncn2nc(Oc3ccc(Br)cc3)ccc2c1-c1c(Cl)cccc1Cl [Compound I-39, 2-(4-bromophenoxy)-5-(2,6-dichlorophenyl)-6H-pyrimido[1,6-b]pyridazin-6-one] | 56.6% |
| 301 nM | 112 nM | – | > 3330 nM | – | – | – | – | – | – | – | COc1ccc(Oc2ccc3c(-c4c(Cl)cccc4Cl)c(=O)ncn3n2)c(Cl)c1 [Compound I-9, 2-(2-chloro-4-methoxyphenoxy)-5-(2,6-dichlorophenyl)-6H-pyrimido[1,6-b]pyridazin-6-one] | – |
| 1220 nM | 137 nM | – | > 3330 nM | – | – | – | – | – | – | – | Cc1ccc(Oc2ccc3c(-c4c(Cl)cccc4Cl)c(=O)ncn3n2)cc1F [Compound I-11, 5-(2,6-dichlorophenyl)-2-(3-fluoro-4-methylphenoxy)-6H-pyrimido[1,6-b]pyridazin-6-one] | – |
| 635 nM | 31 nM | – | > 3330 nM | – | – | – | – | – | – | – | O=c1ncn2nc(Oc3ccc(F)cc3F)ccc2c1C1=CCCCC1 [Compound I-44, 5-(cyclohex-1-en-1-yl)-2-(2,4-difluorophenoxy)-6H-pyrimido[1,6-b]pyridazin-6-one] | – |
| > 3330 nM | 1350 nM | – | > 3330 nM | – | – | – | – | – | – | – | O=c1ncn2nc(NC3CC(F)(F)C3)ccc2c1-c1c(Cl)cccc1Cl [Compound I-14, 5-(2,6-dichlorophenyl)-2-((3,3-difluorocyclobutyl)amino)-6H-pyrimido[1,6-b]pyridazin-6-one] | – |
| 403 nM | 19.7 nM | – | > 3330 nM | better | 3.96 h | 891 ng/mL | 4.86 h | 2 h | 119.3% | 4016 (h)*(ng/mL) | O=c1ncn2nc(Oc3ccc(F)cc3F)ccc2c1-c1cc(Cl)ccc1Cl [Compound I-46, 5-(2,5-dichlorophenyl)-2-(2,4-difluorophenoxy)-6H-pyrimido[1,6-b]pyridazin-6-one] | – |
| 1220 nM | 81.3 nM | – | > 3330 nM | – | – | – | – | – | – | – | O=c1ncn2nc(Oc3ccc(F)cc3F)c(-c3ccncc3)cc2c1-c1c(Cl)cccc1Cl [Compound I-59, 5-(2,6-dichlorophenyl)-2-(2,4-difluorophenoxy)-3-(pyridin-4-yl)-6H-pyrimido[1,6-b]pyridazin-6-one] | – |
